In patent publication US8951960B2, “Synergistic combination of DBNPA and polycyclic antibacterial peptide as biocide in bioethanol production” (Buckman Laboratories International, Inc., priority 2010, dated 2015):

Legend:
[1] = tested on: yeast (Saccharomyces cerevisiae); experiment: Effect of biocide on fermentation yeast in corn fermentation; assay type: cell-based
Experimental: (§1) Experiments were conducted to evaluate the effectiveness of a nonoxidizing biocide as an antimicrobial agent for control of Lactobacillus infections in ethanol fermentation. The nonoxidizing biocide was BRONAM® 20 (20% 2,2-dibromo-3-nitrilopropionamide). The lactobacilli was L. plantarum. The yeast was Saccharomyces cereviseae. Corn mashes containing approximately 30% (w/w) dry solids were used.
A 0.2-g/ml suspension of yeast (Saccharomyces cerevisiae; Ethanol Red; Fermentis, Marcq-en-Baroeul, France) was prepared in a sterile 250-ml flask. This suspension was incubated and mixed for 20 minutes at 40° C. before inoculation into the fermentation flasks. […]
Each flask was mixed with an overhead agitator and samples were collected for the following measurements: yeast cell counts, final concentrations of substrates (glucose, DP2, DP3, and DP4+, where “DPx” represent glucose oligomers with “x” subunits), fermentation products (ethanol, glycerol, lactic acid, and acetic acid), total dry solids, and dissolved dry solids, and the density of the beer liquid phase. […] Samples were prepared for yeast cell counts by diluting at a factor of 100 in deionized water and staining with methylene blue to estimate viability then counted microscopically using a hemacytometer. The final concentrations of substrates and fermentation products were determined by HPLC. […]

[2] = Persistence of intact biocide under fermentation tank conditions; assay type: physicochemical; conditions: conditions in the fermentation tank; based on laboratory work
Experimental: Under the conditions in the fermentation tank, DBNPA is expected to last intact only about 1-2 hours, based on laboratory work. The stillage, i.e., fermented unevaporated product (post “beer tank”) of distillation, is centrifuged, and dried (e.g., about 1 hour at about 250-300° F.), then the mixture is pumped over to a final tank where it is called the DDGS. DDGS is about ⅓ mass of the starting raw material for corn. The chemistry of DBNPA is not expected to endure and survive the centrifugation and heat of drying prior to entering distillers dried grains with solubles (DDGS) stage. In the corn-to-ethanol process, for example, DBNPA is expected to degrade to carbon dioxide and water vapor, and, as such, would have low environmental impact. […] The application of DBNPA avoids the use of antibiotics, which can remain stable throughout the process. The use of DBNPA makes the use of antibiotics unnecessary. The use of DBNPA is more economical since the cost of antibiotics (as the only treatment widely employed) can be relatively high and costly to the fermentation. […]

Lactobacillus plantarum = experiment: Corn mash ethanol fermentation infected with L. plantarum, treated with nonoxidizing biocide; assay type: cell-based; conditions: fermentation conditions typical of fuel-ethanol industry
Experimental: as §1
For slurry preparation, the moisture of ground corn was determined gravimetrically using a moisture balance by measuring the mass loss that occurred upon drying. The amount of corn, deionized (DI) water, and enzyme needed to prepare 160 g of corn slurry at a total dry solids concentration of 30% (w/w) for each replicate was determined. […]
For fermentation, once the mash was cooled, the entire contents (approximately 160 g) of each Labomat beaker were transferred to a sterile 250-ml Erlenmeyer flask. The masses of the mash and flasks were recorded, and the mass of mash transferred to the fermentation flasks was calculated. […]
The L. plantarum culture was prepared for inoculation by growing throughout the day in 100-ml of MRS broth. […] The initial concentration of the bacteria was determined by plating serial dilutions of the culture on MRS agar containing cycloheximide and incubating at 32° C. for 2 days before counting colonies. […]

Lactobacillus fermentans = experiment: Kull synergism test in 25% strength MRS broth, quantities producing endpoints; assay type: cell-based; conditions: Nisin alone, 37° C., 24 hours
Experimental: Lactobacilli MRS broth (25% strength) was prepared and dispensed in 10 ml amounts into test tubes and autoclaved for 20 minutes at 121° C. The biocides were added to the test tubes in the desired concentrations, and then 100 microliters of an overnight broth of Lactobacillus fermentans were added to the respective test tubes and incubated at 37° C. for 24 hours.
When the sum of QA/Qa and QB/Qb is greater than one, antagonism is indicated and when the sum is equal to one, additivity is indicated. When the sum of this value is less than one, synergism exists.

Row | Compound | effect on yeast [1] | time the biocide lasts intact [2] | effect on lactobacilli (Lactobacillus plantarum) | Qa, concentration of Compound A acting alone which produced an endpoint (Lactobacillus fermentans; Example 2) | Qa, concentration of Compound A acting alone which produced an endpoint (Lactobacillus fermentans; Example 3)
1 | N#CC(Br)(Br)C(N)=O [2,2-dibromo-3-nitrilopropionamide] | does not kill the yeast | 1 to 2 h | kills the bacteria (lactobacilli) | – | –
2 | Nisin | – | – | – | 1.0 ppm | 1.0 ppm
